# From patent US12077503B2, “Substituted cyclic amides and their use as herbicides” (FMC CORPORATION, priority 2015, dated 2024)
# Columns and labels:
# Type in all cases: in vivo
# Kochia (Kochia scoparia) [1] = experiment: Test A preemergence; conditions: Bassia scoparia, pre-emergence, 240 h, 0 to 100 scale where 0 is no effect and 100 is complete control, read-out: Kochia plant response rating
# Outline: (§1)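 Seeded soil received test chemicals as a preemergence directed spray, and seedlings at one to two leaves, 2–10 cm tall, received them postemergence, in a non-phytotoxic, surfactant-containing solvent mixture. Pots were held in a greenhouse for approximately 10 d, then rated for injury from 0, no effect, to 100, complete control.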
# [2] = tested on: barnyardgrass (Echinochloa crus-galli); experiment: Test A preemergence; conditions: Echinochloa crus-galli, pre-emergence, 240 h, 0 to 100 scale where 0 is no effect and 100 is complete control, read-out: Barnyardgrass plant response rating
# Outline: as §1
# [3] = tested on: giant foxtail (Setaria faberii); experiment: Test A preemergence; conditions: Setaria faberi, pre-emergence, 240 h, 0 to 100 scale where 0 is no effect and 100 is complete control, read-out: Foxtail, Giant plant response rating
# Outline: as §1
# [4] = tested on: pigweed (Amaranthus retroflexus); experiment: Test A preemergence; conditions: Amaranthus retroflexus, pre-emergence, 240 h, 0 to 100 scale where 0 is no effect and 100 is complete control, read-out: Pigweed plant response rating
# [5] = tested on: ragweed (common ragweed, Ambrosia elatior); experiment: Test A preemergence; conditions: Ambrosia artemisiifolia, pre-emergence, 240 h, 0 to 100 scale where 0 is no effect and 100 is complete control, read-out: Ragweed plant response rating
# Outline: as §1
# [6] = tested on: ryegrass, Italian (Italian ryegrass, Lolium multiflorum); experiment: Test A preemergence; conditions: Lolium multiflorum, pre-emergence, 240 h, 0 to 100 scale where 0 is no effect and 100 is complete control, read-out: Ryegrass, Italian plant response rating
# Outline: as §1
# [7] = tested on: Galium (catchweed bedstraw, Galium aparine); experiment: Test A postemergence; conditions: Galium, post-emergence, 240 h, Postemergence, read-out: Galium plant response rating (0 to 100 scale)
# Outline: as §1
# Kochia (Kochia scoparia) [8] = experiment: Test A postemergence; conditions: Bassia scoparia, post-emergence, 240 h, Postemergence, read-out: Kochia plant response rating (0 to 100 scale)
# Outline: as §1
# [9] = tested on: barnyardgrass (Echinochloa crus-galli); experiment: Test A postemergence; conditions: Echinochloa crus-galli, post-emergence, 240 h, Postemergence
# Outline: as §1
# [10] = tested on: blackgrass (Alopecurus myosuroides); experiment: Test A postemergence; conditions: Alopecurus myosuroides, post-emergence, 240 h, Postemergence, read-out: Blackgrass plant response rating (0 to 100 scale)
# Outline: as §1
# corn (Zea mays) = experiment: Test A postemergence; conditions: Zea mays, post-emergence, 240 h, Postemergence, read-out: Corn plant response rating (0 to 100 scale)
# Outline: as §1
# [11] = tested on: giant foxtail (Setaria faberii); experiment: Test A postemergence; conditions: Setaria faberi, post-emergence, 240 h, Postemergence, read-out: Foxtail, Giant plant response rating (0 to 100 scale)
# Outline: as §1
# [12] = tested on: pigweed (Amaranthus retroflexus); experiment: Test A postemergence; conditions: Amaranthus retroflexus, post-emergence, 240 h, Postemergence, read-out: Pigweed plant response rating (0 to 100 scale)
# Outline: as §1
# [13] = tested on: ragweed (common ragweed, Ambrosia elatior); experiment: Test A postemergence; conditions: Ambrosia artemisiifolia, post-emergence, 240 h, Postemergence, read-out: Ragweed plant response rating (0 to 100 scale)
# Outline: as §1
# [14] = tested on: ryegrass, Italian (Italian ryegrass, Lolium multiflorum); experiment: Test A postemergence; conditions: Lolium multiflorum, post-emergence, 240 h, Postemergence, read-out: Ryegrass, Italian plant response rating (0 to 100 scale)
# Outline: as §1
# [15] = tested on: wheat (Triticum aestivum); experiment: Test A postemergence; conditions: Triticum aestivum, post-emergence, 240 h, Postemergence, read-out: Wheat plant response rating (0 to 100 scale)
# Outline: as §1
# [16] = tested on: barnyardgrass (Echinochloa crus-galli); experiment: Test B flooded paddy test; conditions: Echinochloa crus-galli, 250 g ai/ha, Flood; 0 to 100 scale where 0 is no effect and 100 is complete control; read-out: Barnyardgrass plant response rating
# Outline: (§2)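 Flooding to 3 cm over soil accompanied treatment, which consisted of adding compound to the standing water around 2-leaf plants; depth was then maintained. Visual assessment versus controls followed at 13 to 15 d (scale 0–100, 0 meaning no effect).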
# [17] = tested on: ducksalad (Heteranthera limosa); experiment: Test B flooded paddy test; conditions: Heteranthera limosa, 250 g ai/ha, Flood; 0 to 100 scale where 0 is no effect and 100 is complete control; read-out: Ducksalad plant response rating
# Outline: as §2
# rice (Oryra sativa) = experiment: Test B flooded paddy test; conditions: Oryza sativa, 250 g ai/ha, Flood; 0 to 100 scale where 0 is no effect and 100 is complete control; read-out: Rice plant response rating
# Outline: as §2
# [18] = tested on: sedge, umbrella (small-flower umbrella sedge, Cyperus difformis); experiment: Test B flooded paddy test; conditions: Cyperus difformis, 250 g ai/ha, Flood; 0 to 100 scale where 0 is no effect and 100 is complete control; read-out: Sedge, Umbrella plant response rating
# Outline: as §2
# [19] = 125 g ai/ha, preemergence, visual injury rating, approximately 10 d
# [20] = 125 g ai/ha, visual rating about 10 d after treatment
# [21] = 31 g ai/ha, 0 is no effect, 100 is complete control
smiles,measurement,setting,value
CN1C[C@H](c2csc3c2CCOC3)[C@@H](C(=O)Nc2ccccc2F)C1=O [Compound 1267],pest or weed control at 31 g/ha,"Kochia (Kochia scoparia) [1]; 31 g ai/ha, Preemergence",0%
same,pest or weed control at 125 g/ha,Kochia (Kochia scoparia) [1]; [19],0%
same,pest or weed control at 31 g/ha,"[2]; 31 g ai/ha, Preemergence",90%
same,pest or weed control at 125 g/ha,[2]; [19],90%
same,pest or weed control at 31 g/ha,"[3]; 31 g ai/ha, Preemergence",90%
same,pest or weed control at 125 g/ha,[3]; [19],90%
same,pest or weed control at 31 g/ha,"[4]; 31 g ai/ha, Preemergence",0%
same,pest or weed control at 125 g/ha,[4]; [19],0%
same,pest or weed control at 31 g/ha,"[5]; 31 g ai/ha, Preemergence",0%
same,pest or weed control at 125 g/ha,[5]; [19],0%
same,pest or weed control at 31 g/ha,"[6]; 31 g ai/ha, Preemergence",0%
same,pest or weed control at 125 g/ha,[6]; [19],0%
same,pest or weed control at 125 g/ha,[7]; [20],0%
same,pest or weed control at 31 g/ha,[7]; [21],0%
same,pest or weed control at 125 g/ha,Kochia (Kochia scoparia) [8]; [20],0%
same,pest or weed control at 31 g/ha,Kochia (Kochia scoparia) [8]; [21],0%
same,pest or weed control at 125 g/ha,"[9]; 125 g ai/ha, visual rating about 10 d after treatment, read-out: Barnyardgrass plant response rating (0 to 100 scale, 0 no effect, 100 complete control)",90%
same,pest or weed control at 31 g/ha,"[9]; 31 g ai/ha, 0 is no effect, 100 is complete control, read-out: Barnyardgrass plant response rating (0 to 100 scale)",60%
same,pest or weed control at 125 g/ha,[10]; [20],0%
same,pest or weed control at 31 g/ha,[10]; [21],0%
same,plant injury at 125 g/ha,corn (Zea mays); [20],0%
same,plant injury at 31 g/ha,corn (Zea mays); [21],0%
same,pest or weed control at 125 g/ha,[11]; [20],90%
same,pest or weed control at 31 g/ha,[11]; [21],60%
same,pest or weed control at 125 g/ha,[12]; [20],0%
same,pest or weed control at 31 g/ha,[12]; [21],0%
same,pest or weed control at 125 g/ha,[13]; [20],0%
same,pest or weed control at 31 g/ha,[13]; [21],0%
same,pest or weed control at 125 g/ha,[14]; [20],0%
same,pest or weed control at 31 g/ha,[14]; [21],0%
same,plant injury at 125 g/ha,[15]; [20],0%
same,plant injury at 31 g/ha,[15]; [21],0%
same,pest or weed control at 250 g/ha,[16],90%
same,pest or weed control at 250 g/ha,[17],90%
same,pest or weed control at 250 g/ha,rice (Oryra sativa),0%
same,pest or weed control at 250 g/ha,[18],0%
